# From ChEMBL document CHEMBL1649156, “Antianaerobic activity of sulopenem compared to six other agents” (2009)
# Key:
# Type in all cases: functional
# Clostridium tertium = assay: Antimicrobial activity in Clostridium tertium by CLSI agar dilution method
# Prevotella veroralis = assay: Antimicrobial activity in Prevotella veroralis by CLSI agar dilution method
# Fusobacterium varium = assay: Antimicrobial activity in Fusobacterium varium by CLSI agar dilution method
# [1] = tested on: Peptostreptococcus anaerobius; assay: Antimicrobial activity in Peptostreptococcus anaerobius by CLSI agar dilution method
# Prevotella salivae = assay: Antimicrobial activity in Prevotella salivae by CLSI agar dilution method; settings: Segatella salivae
# Finegoldia magna = assay: Antimicrobial activity in Finegoldia magna by CLSI agar dilution method
# Prevotella intermedia = assay: Antimicrobial activity in Prevotella intermedia by CLSI agar dilution method
# Hoylesella loescheii = assay: Antimicrobial activity in Prevotella loescheii by CLSI agar dilution method
# Thomasclavelia ramosa = assay: Antimicrobial activity in Clostridium ramosum by CLSI agar dilution method
# Bacteroides stercoris = assay: Antimicrobial activity in Bacteroides stercoris by CLSI agar dilution method
# Fusobacterium nucleatum = assay: Antimicrobial activity in Fusobacterium nucleatum by CLSI agar dilution method
# Prevotella denticola = assay: Antimicrobial activity in Prevotella denticola by CLSI agar dilution method
# Clostridium cadaveris = assay: Antimicrobial activity in Clostridium cadaveris by CLSI agar dilution method
# [2] = tested on: Paeniclostridium sordellii; assay: Antimicrobial activity in Clostridium sordellii by CLSI agar dilution method; settings: Paraclostridium sordellii
# Prevotella buccae = assay: Antimicrobial activity in Prevotella buccae by CLSI agar dilution method; settings: Segatella buccae
# Hoylesella oralis = assay: Antimicrobial activity in Prevotella oralis group by CLSI agar dilution method
# Prevotella baroniae = assay: Antimicrobial activity in Prevotella baroniae by CLSI agar dilution method; settings: Segatella baroniae
# Tissierella praeacuta = assay: Antimicrobial activity in Clostridium hastiforme by CLSI agar dilution method
# Bacteroides ovatus = assay: Antimicrobial activity in Bacteroides ovatus by CLSI agar dilution method
# Anaerococcus prevotii = assay: Antimicrobial activity in Anaerococcus prevotii by CLSI agar dilution method
# [3] = tested on: Parabacteroides distasonis; assay: Antimicrobial activity in Bacteroides distasonis by CLSI agar dilution method
# Lactobacillus = assay: Antimicrobial activity in Lactobacillus by CLSI agar dilution method
# Clostridium butyricum = assay: Antimicrobial activity in Clostridium butyricum by CLSI agar dilution method
# [4] = tested on: Peptoniphilus asaccharolyticus; assay: Antimicrobial activity in Peptoniphilus asaccharolyticus by CLSI agar dilution method
# [5] = tested on: Prevotella melaninogenica; assay: Antimicrobial activity in Prevotella melaninogenica by CLSI agar dilution method
# [6] = tested on: Paraclostridium bifermentans; assay: Antimicrobial activity in Clostridium bifermentans by CLSI agar dilution method
# Bifidobacterium = assay: Antimicrobial activity in Bifidobacterium by CLSI agar dilution method
# Bacteroides fragilis [7] = assay: Antimicrobial activity in Bacteroides fragilis by CLSI agar dilution method
# Anaerococcus tetradius = assay: Antimicrobial activity in Anaerococcus tetradius by CLSI agar dilution method
# Bacteroides uniformis = assay: Antimicrobial activity in Bacteroides uniformis by CLSI agar dilution method
# Phocaeicola vulgatus = assay: Antimicrobial activity in Bacteroides vulgatus by CLSI agar dilution method
# Clostridium perfringens = assay: Antimicrobial activity in Clostridium perfringens by CLSI agar dilution method
# [Clostridium] innocuum = Antimicrobial activity in Clostridium innocuum by CLSI agar dilution method
# Prevotella sp. = assay: Antimicrobial activity in Prevotella sp.by CLSI agar dilution method
# Porphyromonas gingivalis = assay: Antimicrobial activity in Porphyromonas gingivalis by CLSI agar dilution method
# Actinomyces = assay: Antimicrobial activity in Actinomyces by CLSI agar dilution method
# [8] = tested on: Bacteroides thetaiotaomicron; assay: Antimicrobial activity in Bacteroides thetaiotaomicron by CLSI agar dilution method
# [9] = tested on: Fusobacterium necrophorum; assay: Antimicrobial activity in Fusobacterium necrophorum by CLSI agar dilution method
# Prevotella bergensis = assay: Antimicrobial activity in Prevotella bergensis by CLSI agar dilution method; settings: Hallella bergensis
# Prevotella nigrescens = assay: Antimicrobial activity in Prevotella nigrescens by CLSI agar dilution method
# Parvimonas micra = assay: Antimicrobial activity in Micromonas micros by CLSI agar dilution method
# [10] = tested on: Enterocloster clostridioformis; assay: Antimicrobial activity in Clostridium clostridioforme by CLSI agar dilution method
# Cutibacterium acnes = assay: Antimicrobial activity in Propionibacterium acnes by CLSI agar dilution method
# [11] = tested on: Porphyromonas asaccharolytica; assay: Antimicrobial activity in Porphyromonas asaccharolytica by CLSI agar dilution method
# Prevotella disiens = assay: Antimicrobial activity in Prevotella disiens by CLSI agar dilution method
# Fusobacterium mortiferum = assay: Antimicrobial activity in Fusobacterium mortiferum by CLSI agar dilution method
# Bacteroides fragilis [12] = assay: Antimicrobial activity in Bacteroides fragilis ATCC 25285 by CLSI agar dilution method
# Clostridium sp. = assay: Antimicrobial activity in Clostridium sp. by CLSI agar dilution method
# Eggerthella lenta [13] = assay: Antimicrobial activity in Eggerthella lenta ATCC 43055 by CLSI agar dilution method
# [14] = tested on: Bacteroides thetaiotaomicron; assay: Antimicrobial activity in Bacteroides thetaiotaomicron ATCC 29741 by CLSI agar dilution method
# Prevotella corporis = assay: Antimicrobial activity in Prevotella corporis by CLSI agar dilution method
# Eggerthella lenta [15] = assay: Antimicrobial activity in Eggerthella lenta by CLSI agar dilution method
# Clostridioides difficile = assay: Antimicrobial activity in Clostridium difficile by CLSI agar dilution method
# Prevotella bivia = assay: Antimicrobial activity in Prevotella bivia by CLSI agar dilution method
compound,measurement,setting,value
C[C@@H](O)[C@H]1C(=O)N2C(C(=O)O)=C(S[C@H]3CC[S@@+]([O-])C3)S[C@H]12 [SULOPENEM],MIC,Clostridium tertium,1 µg/mL
same,MIC50,Clostridium tertium,1 µg/mL
same,MIC,Prevotella veroralis,0.06 µg/mL
same,MIC50,Fusobacterium varium,0.5 µg/mL
same,MIC90,Fusobacterium varium,0.5 µg/mL
same,MIC50,[1],0.5 µg/mL
same,MIC90,[1],2 µg/mL
same,MIC,Prevotella salivae,0.06 µg/mL
same,MIC50,Finegoldia magna,0.25 µg/mL
same,MIC90,Finegoldia magna,0.25 µg/mL
same,MIC50,Prevotella intermedia,0.06 µg/mL
same,MIC90,Prevotella intermedia,0.125 µg/mL
same,MIC,Hoylesella loescheii,0.125 µg/mL
same,MIC,Thomasclavelia ramosa,0.5 µg/mL
same,MIC,Bacteroides stercoris,0.25 µg/mL
same,MIC50,Bacteroides stercoris,0.25 µg/mL
same,MIC,Fusobacterium nucleatum,≤ 0.016 µg/mL
same,MIC50,Fusobacterium nucleatum,≤ 0.016 µg/mL
same,MIC90,Fusobacterium nucleatum,0.03 µg/mL
same,MIC50,Prevotella denticola,0.125 µg/mL
same,MIC90,Prevotella denticola,0.25 µg/mL
same,MIC,Clostridium cadaveris,0.25 µg/mL
same,MIC,[2],0.125 µg/mL
same,MIC50,Prevotella buccae,0.125 µg/mL
same,MIC90,Prevotella buccae,0.25 µg/mL
same,MIC,Hoylesella oralis,≤ 0.016 µg/mL
same,MIC,Prevotella baroniae,0.06 µg/mL
same,MIC,Tissierella praeacuta,2 µg/mL
same,MIC,Bacteroides ovatus,0.25 µg/mL
same,MIC50,Bacteroides ovatus,0.25 µg/mL
same,MIC90,Bacteroides ovatus,0.5 µg/mL
same,MIC,Anaerococcus prevotii,0.03 µg/mL
same,MIC50,[3],0.5 µg/mL
same,MIC90,[3],1 µg/mL
same,MIC50,Lactobacillus,> 8 µg/mL
same,MIC90,Lactobacillus,> 8 µg/mL
same,MIC,Clostridium butyricum,0.5 µg/mL
same,MIC,[4],0.03 µg/mL
same,MIC50,[4],0.06 µg/mL
same,MIC50,[5],0.125 µg/mL
same,MIC90,[5],0.25 µg/mL
same,MIC,[6],0.5 µg/mL
same,MIC50,Bifidobacterium,0.25 µg/mL
same,MIC90,Bifidobacterium,1 µg/mL
same,MIC50,Bacteroides fragilis [7],0.125 µg/mL
same,MIC90,Bacteroides fragilis [7],0.5 µg/mL
same,MIC50,Anaerococcus tetradius,0.125 µg/mL
same,MIC90,Anaerococcus tetradius,0.25 µg/mL
same,MIC,Bacteroides uniformis,0.25 µg/mL
same,MIC50,Bacteroides uniformis,0.25 µg/mL
same,MIC50,Phocaeicola vulgatus,0.5 µg/mL
same,MIC90,Phocaeicola vulgatus,1 µg/mL
same,MIC50,Clostridium perfringens,0.125 µg/mL
same,MIC90,Clostridium perfringens,0.25 µg/mL
same,MIC,[Clostridium] innocuum,0.25 µg/mL
same,MIC,Prevotella sp.,0.03 µg/mL
same,MIC,Porphyromonas gingivalis,0.03 µg/mL
same,MIC,Actinomyces,0.25 µg/mL
same,MIC50,Actinomyces,0.5 µg/mL
same,MIC,[8],0.25 µg/mL
same,MIC50,[8],0.25 µg/mL
same,MIC90,[8],0.5 µg/mL
same,MIC,[9],≤ 0.016 µg/mL
same,MIC50,[9],≤ 0.016 µg/mL
same,MIC,Prevotella bergensis,0.125 µg/mL
same,MIC50,Prevotella nigrescens,0.06 µg/mL
same,MIC90,Prevotella nigrescens,0.125 µg/mL
same,MIC,Parvimonas micra,0.125 µg/mL
same,MIC50,Parvimonas micra,0.125 µg/mL
same,MIC90,Parvimonas micra,0.125 µg/mL
same,MIC,[10],1 µg/mL
same,MIC,Cutibacterium acnes,0.125 µg/mL
same,MIC50,Cutibacterium acnes,0.125 µg/mL
same,MIC90,Cutibacterium acnes,0.25 µg/mL
same,MIC,[11],≤ 0.016 µg/mL
same,MIC,Prevotella disiens,0.03 µg/mL
same,MIC50,Prevotella disiens,0.125 µg/mL
same,MIC50,Fusobacterium mortiferum,0.5 µg/mL
same,MIC90,Fusobacterium mortiferum,0.5 µg/mL
same,MIC,Bacteroides fragilis [12],0.06 µg/mL
same,MIC50,Clostridium sp.,2 µg/mL
same,MIC90,Clostridium sp.,4 µg/mL
same,MIC,Eggerthella lenta [13],0.06 µg/mL
same,MIC,[14],0.06 µg/mL
same,MIC,Prevotella corporis,0.03 µg/mL
same,MIC50,Prevotella corporis,0.06 µg/mL
same,MIC,Eggerthella lenta [15],1 µg/mL
same,MIC50,Eggerthella lenta [15],1 µg/mL
same,MIC90,Eggerthella lenta [15],1 µg/mL
same,MIC,Clostridioides difficile,2 µg/mL
same,MIC50,Clostridioides difficile,2 µg/mL
same,MIC90,Clostridioides difficile,4 µg/mL
same,MIC50,Prevotella bivia,0.125 µg/mL
same,MIC90,Prevotella bivia,0.25 µg/mL
